# Results as given in patent publication US9409904B2, “Compounds and compositions for use in augmentation of glucose” (YISSUM RESEARCH DEVELOPMENT COMPANY OF THE HEBREW …, priority 2011, dated 2016).
# “Also recorded” adds a separate entry of the source. Where two headings read alike, the source gives them in different places.
# Key:
# [1] = system: AMPK; assay: Thr172 phosphorylation of AMPK in L6 myotubes, Western blot of whole cell lysates; type: cell-based; details: for Thr172 phosphorylation in AMPK / AMPK activation (result in words): L6 myotubes
# Protocol: The effect of the various derivatives on the rate of glucose uptake in L6 myotubes was investigated. […] The abundance of GLUT1 and GLUT4 in the plasma membranes of L6 myotubes was determined in cells expressing GLUT-1myc or GLUT-4myc, as described before. […] In addition, the effect of compounds on the glucose—stimulated insulin secretion (GSIS) was investigated. Whole cell lysates were prepared as previously described with some minor modifications: the lysis buffer contained 50 mM Tris-HCl, pH 7.5, 1 mM EDTA, 1 mM EGTA, 1 mM Na3VO4, 150 mM NaCl, 50 mM NaF, 10 mM sodium-glycerophosphate, 5 mM sodium pyrophosphate, and 1 mM PMSF, supplemented with 0.1% (v/v) NP-40, 0.1% (v/v) 2-β-mercaptoethanol, and protease inhibitor cocktail (1:100 dilution). The cells were washed by ice-cold PBS, and 1 ml of lysis buffer was then added and incubated at 4° C. for 40 minutes. The resulting cell lysates were centrifuged at 8,700 g×30 minutes at 4° C. and the resulting supernatant fractions were separated and kept at −20° C. until used. Protein content in the supernatant was determined according to Bradford, using a BSA standard dissolved in the same buffer. […] Samples for Western blot analyses of GLUT1 and GLUT4 were prepared as described in [22]. The proteins were separated on 10% SDS-PAGE and Western blot analyses performed using antibodies according to our previously established protocols.
# [2] = system: L6 myotubes; assay: [3H]-2-deoxy-D-glucose (dGlc) uptake assay in L6 myotubes; type: cell-based; details: for activity at 100 µM: Mean ± SD (n = 3), read-out: Effect on glucose uptake [100 μM] in L6 myotubes (%); for activity at 100 µM / rate of glucose uptake compared to vehicle (DMSO) treated control: 100 μM; for rate of glucose uptake compared to vehicle (DMSO) treated control: basal rate = 100%; for maximal effective concentration, glucose uptake: dose response, 5 h (3) or 12 h (4, 15)
# Protocol: The effect of the various derivatives on the rate of glucose uptake in L6 myotubes was investigated. […] The abundance of GLUT1 and GLUT4 in the plasma membranes of L6 myotubes was determined in cells expressing GLUT-1myc or GLUT-4myc, as described before. […] In addition, the effect of compounds on the glucose—stimulated insulin secretion (GSIS) was investigated.
# L6 myotubes were maintained as described in [21]. All experiments were conducted on fully differentiated myotubes.
# The rate of [^3H]dGlc uptake in myotubes, in the absence or presence of insulin, was determined as described in [21]. […] […] The cultures were then rinsed 3 times with PBS at room temperature and incubated with PBS, pH 7.4, containing 0.1 mM dGlc and 1.0 μCi/ml [^3H]dGlc for 5 minutes at room temperature. At the end of the assay, the myotubes were lysed in 0.1% (w/v) SDS in water and taken for liquid scintillation.
# [3] = system: INS-1E cells; assay: Glucose-stimulated insulin secretion (GSIS) from INS-1E cells, insulin RIA; type: cell-based
# Protocol: INS-1E cells (passages 70-90) were grown and maintained as described in Merglen A et al. Endocrinology 2004, 145:667-678.
# To investigate the glucose—stimulated insulin secretion (GSIS) and insulin radioimmunoassay-confluent cultures of INS-1E cells were pre-incubated for 30 min in KRBH-BSA buffer containing 3.3 mM glucose. This was followed by 1-h incubation at 3.3 and an additional 1-h at 16.7 mM glucose, as described (1). Aliquots from the incubation buffers were collected, cleared by centrifugation and frozen until used for insulin RIA. Total insulin content in β-cells was similarly measured in aliquots of cell extracts (1). RIA kits rat insulin (Linco Research, St. Charles, Mo.) was used according to manufacturers' protocols.
# [4] = system: GLUT1; assay: Total GLUT1 content in whole cell lysates of L6 myotubes, Western blot; type: cell-based
# Protocol: (§1) Whole cell lysates were prepared as previously described with some minor modifications: the lysis buffer contained 50 mM Tris-HCl, pH 7.5, 1 mM EDTA, 1 mM EGTA, 1 mM Na3VO4, 150 mM NaCl, 50 mM NaF, 10 mM sodium-glycerophosphate, 5 mM sodium pyrophosphate, and 1 mM PMSF, supplemented with 0.1% (v/v) NP-40, 0.1% (v/v) 2-β-mercaptoethanol, and protease inhibitor cocktail (1:100 dilution). The cells were washed by ice-cold PBS, and 1 ml of lysis buffer was then added and incubated at 4° C. for 40 minutes. The resulting cell lysates were centrifuged at 8,700 g×30 minutes at 4° C. and the resulting supernatant fractions were separated and kept at −20° C. until used. Protein content in the supernatant was determined according to Bradford, using a BSA standard dissolved in the same buffer. Aliquots (5-60 μg of protein) were mixed with the sample buffer [62.5 mM Tris-HCl, pH 6.8, 2% (w/v) SDS, 10% (v/v) glycerol, 50 mM DTT, and 0.01% (w/v) bromophenol blue], heated at 95° C. for 5 minutes. Samples for Western blot analyses of GLUT1 and GLUT4 were prepared as described in [22]. The proteins were separated on 10% SDS-PAGE and Western blot analyses performed using antibodies according to our previously established protocols.
# [5] = system: GLUT4myc; assay: Colorimetric determination of surface GLUT4myc in L6 myotubes; type: cell-based
# Protocol: The colorimetric detection of surface GLUT4myc or GLUT1myc in L6 myotubes was performed as described in [7]. Briefly, cultured myotubes were incubated with rabbit anti-C-Myc antibody (1:200 dilution), washed and fixed with 3% formaldehyde, and further interacted with goat HRP-conjugated anti-rabbit IgG (1:2000 dilution). Following the washes, a solution of OPD was added, and the culture plates were taken for absorbance measurement at 492 nM to estimate the relative abundance of GLUT1myc or GLUT4myc on the plasma membrane of the myotubes. The GLUT1myc and GLUT4myc L6 cell cultures were the courtesy of Dr. A. Klip, Hospital for Sick Children (Toronto, ON, Canada).
# The capacity of compound 34 to increase the rate of glucose uptake by increasing GLUT4 content in the plasma membrane of myotubes was tested. […] The cells expressing GLUT1myc or GLUT4myc were treated with 25 μM of 34 or DMSO as described above. At the end of the incubation, the cultures were taken for immunodetection of surface GLUT1myc (open bars) or GLUT4myc (black bars), as described herein above.
# [6] = system: GLUT4; assay: Total GLUT4 content in whole cell lysates of L6 myotubes, Western blot; type: cell-based
# Protocol: as §1
compound,measurement,setting,value
"CCOc1ccc2nc(SCCC(=O)O)sc2c1 [Compound 25, 3-(6-ethoxybenzothiazol-2-ylthio)propanoic acid]",Thr172 phosphorylation in AMPK / AMPK activation (result in words),[1],activated AMPK
same,time of maximal (peak) Thr172 phosphorylation in AMPK,[1]; incubation time,60 min
same,rate of glucose uptake in L6 myotubes (result in words),[2],increase
same,increase of glucose uptake in comparison with vehicle-treated cells,"[2]; 50 μM, within 5 hours of incubation",1.8 fold
same,melting point,,175 to 178 °C
"CCOc1ccc2nc(SSc3nc4ccc(OCC)cc4s3)sc2c1 [Compound 31, 1,2-bis(6-ethoxybenzothiazol-2-yl)disulfane]",persistence of Thr172 phosphorylation of AMPK,[1]; incubation time,up to 5 hours
same,time to induction of Thr172 phosphorylation in AMPK,[1]; incubation time,≤ 40 min
same,glucose-stimulated insulin secretion from INS-1E cells (result in words),[3],increases
same,rate of glucose uptake in L6 myotubes (result in words),[2],increase; also recorded: substantially increased
same,Emax,"[2]; Rattus norvegicus, L6, 150 μM within 5 hours of incubation, read-out: maximal effect on rate of glucose uptake, compared with a non-treated control",189 ± 21.8%
same,rate of glucose uptake in L6 myotubes (result in words),[2]; listed as EMM-5,increases
same,melting point,,185 to 190 °C
"Cn1ccnc1S [Compound 9, 2-mercapto-1-methylimidazole]",activity at 100 µM,"[2]; Rattus norvegicus, L6, Table 1",93 ± 9.5%
"c1ccc2scnc2c1 [Compound 13, benzothiazole]",activity at 100 µM,"[2]; Rattus norvegicus, L6, Table 2",117 ± 9.7%
"Nc1nncs1 [Compound 5, 2-amino-1,3,4-thiadiazole]",activity at 100 µM,"[2]; Rattus norvegicus, L6, Table 1",97.4 ± 2.9%
"Nc1nccs1 [Compound 10, 2-aminothiazole]",activity at 100 µM,"[2]; Rattus norvegicus, L6, Table 1",95.7 ± 5.1%
"Oc1nc2ccc(Br)cc2s1 [Compound 15, 6-bromo-2-benzothiazolinone]",Thr172 phosphorylation in AMPK / AMPK activation (result in words),[1],significantly induced
same,persistence of stimulatory effect on glucose uptake,[2],24 h
same,rate of glucose uptake in L6 myotubes (result in words),[2],increase
same,rate of glucose uptake compared to vehicle (DMSO) treated control,[2],132.9%±13.8%
same,activity at 100 µM,"[2]; Rattus norvegicus, L6, Table 2",133 ± 13.8%
same,"maximal effective concentration, glucose uptake",[2],100 µM
"SC1=NCCS1 [Compound 11, 2-mercapto-2-thiazoline]",activity at 100 µM,"[2]; Rattus norvegicus, L6, Table 1",106 ± 6.8%
insulin: Human insulin (Actrapid) purchased from Novo Nordisk [reference compound],total content of GLUT1 in myotubes,[4],Neither compound altered
same,increase of rate of glucose uptake,"[2]; insulin 100 nM, last 20 minutes of incubation",45%±13%
same,time of effect on GLUT4myc translocation to the plasma membrane,[5],30 min
same,abundance of GLUT4myc in the plasma membrane,"[5]; 25 μM of 34, insulin",increased
same,total content of GLUT4 in myotubes,[6],Neither compound altered
"Cn1cnnc1S [Compound 7, 3-mercapto-4-methyl-4H-1,2,4-triazole]",activity at 100 µM,"[2]; Rattus norvegicus, L6, Table 1",107 ± 7.5%
"Sc1ncccn1 [Compound 8, 2-mercaptopyrimidine]",activity at 100 µM,"[2]; Rattus norvegicus, L6, Table 1",100 ± 4.9%
"CCCCSc1nc2ccc(O)cc2s1 [Compound 23, 2-(butylthio)benzothiazol-6-ol]",melting point,,80 to 85 °C
"c1ccc2[nH]nnc2c1 [Compound 17, 1H-benzotriazole]",activity at 100 µM,"[2]; Rattus norvegicus, L6, Table 2",87.5 ± 11.4%
"Oc1ccc2nc(S)sc2c1 [Compound 19, 2-mercaptobenzothiazol-6-ol]",rate of glucose uptake in L6 myotubes (result in words),[2],did not stimulate
"c1ccc2[nH]c(SSc3nc4ccccc4[nH]3)nc2c1 [Compound 32, 1,2-di(1H-benziimidazol-2-yl)disulfane]",rate of glucose uptake in L6 myotubes (result in words),[2],no stimulatory effect
"NC1=NC(=O)/C(=C\C=C\c2ccc([N+](=O)[O-])o2)S1 [Compound 2, (E)-2-Amino-5-((E)-3-(5-nitrofuran-2-yl)allylidene)thiazol-4(5H)-one]",Thr172 phosphorylation in AMPK / AMPK activation (result in words),[1],marginally induced
same,rate of glucose uptake in L6 myotubes (result in words),[2],slightly increased
same,concentrations at which effects on glucose uptake and Thr172 phosphorylation were observed,"[2]; L6 myotubes, data not shown",above 500 μM
"CCCNC(=O)CSc1nc2ccc(OCC)cc2s1 [Compound 33, 2-((6-ethoxybenzothiazol-2-yl)thio)-N-propylacetamide]",time to significant Thr172 phosphorylation of AMPK,[1]; incubation time,5 h
same,rate of glucose uptake in L6 myotubes (result in words),[2],increase; also recorded: markedly augmented
same,increase of rate of glucose uptake,[2]; 100 μM within 5 hours of incubation,2 fold
"CCOc1ccc2nc(S)sc2c1 [Compound 4, 6-ethoxybenzo[d]thiazole-2-thiol]",Thr172 phosphorylation in AMPK / AMPK activation (result in words),[1],significantly induced
same,persistence of stimulatory effect on glucose uptake,[2],24 h
same,rate of glucose uptake in L6 myotubes (result in words),[2],increase
same,rate of glucose uptake compared to vehicle (DMSO) treated control,[2],172.4%±12.4%
same,activity at 100 µM,"[2]; Rattus norvegicus, L6, Table 2",172 ± 12.4%
same,"maximal effective concentration, glucose uptake",[2],100 µM
"CCC(CC)CSc1nc2ccc(O)cc2s1 [Compound 21, 2-(2-ethylbutylthio)benzothiazol-6-ol]",melting point,,105 to 110 °C
"CCOc1ccc2nc(S(N)(=O)=O)sc2c1 [Compound 30, 6-ethoxybenzothiazole-2-sulfonamide]",rate of glucose uptake in L6 myotubes (result in words),[2],inactive
"CCOc1ccc2nc(N)sc2c1 [Compound 14, 6-ethoxybenzothiazol-2-amine]",activity at 100 µM,"[2]; Rattus norvegicus, L6, Table 2",111 ± 14.2%
"c1cnc2[nH]nnc2c1 [Compound 16, 1H-1,2,3-triazolo[4,5]pyridine]",activity at 100 µM,"[2]; Rattus norvegicus, L6, Table 2",86.7 ± 17.9%
"CCCSc1nc2ccc(O)cc2s1 [Compound 20, 2-(propylthio)benzothiazol-6-ol]",glucose-stimulated insulin secretion from INS-1E cells (result in words),[3],augments
same,glucose stimulated insulin secretion in INS-1E,"[3]; 10 μM, indicated time periods",increased
same,glucose-stimulated insulin secretion,[3]; 25 μM,increased
same,rate of glucose uptake in L6 myotubes (result in words),[2],increase
same,rate of glucose uptake in L6 myotubes (result in words),[2]; listed as EMM-45,increases; also recorded: induced an increase; also recorded: induces stimulation
same,melting point,,67 to 70 °C
"Nc1ncc([N+](=O)[O-])s1 [Compound 12, 2-amino-5-nitrothiazole]",activity at 100 µM,"[2]; Rattus norvegicus, L6, Table 1",95.1 ± 8.9%
"Cc1nnc(N)s1 [Compound 6, 2-amino-5-methyl-1,3,4-thiadiazole]",activity at 100 µM,"[2]; Rattus norvegicus, L6, Table 1",101 ± 5.5%
